Data on five compounds can be found in patent US20040106802A1, “Novel compounds and therapeutic uses thereof” (TORRENT PHARMACEUTICALS LTD., priority 2002, published 2004).

The subject of series [1] is zucker fatty rats. Particulars: cited from earlier work.
For series [2] the following is noted: in vivo; cited from earlier work.
For series [3], the target named is T1, Porcine DPP-IV (Sus scrofa, UniProt P22411).
T1 construct: purchased Sigma-Aldrich Germany
In words: Assay of DPP-IV enzyme inhibitory activity (spectrophotometric, Gly-Pro-pNA cleavage). In kind it is biochemical. To be noted: Porcine DPP-IV, Gly-Pro-pNA substrate, 30° C.; mean ± SD of three experiments except compound Nos. 133 & 139; read-out: IC50 (μM) Mean ± SD, inhibitory activity on DPP-IV enzyme activity.

Series [4] relates to DPP-IV. Particulars: in vivo; cited from earlier work.

T1 sequence (P22411 whole entry): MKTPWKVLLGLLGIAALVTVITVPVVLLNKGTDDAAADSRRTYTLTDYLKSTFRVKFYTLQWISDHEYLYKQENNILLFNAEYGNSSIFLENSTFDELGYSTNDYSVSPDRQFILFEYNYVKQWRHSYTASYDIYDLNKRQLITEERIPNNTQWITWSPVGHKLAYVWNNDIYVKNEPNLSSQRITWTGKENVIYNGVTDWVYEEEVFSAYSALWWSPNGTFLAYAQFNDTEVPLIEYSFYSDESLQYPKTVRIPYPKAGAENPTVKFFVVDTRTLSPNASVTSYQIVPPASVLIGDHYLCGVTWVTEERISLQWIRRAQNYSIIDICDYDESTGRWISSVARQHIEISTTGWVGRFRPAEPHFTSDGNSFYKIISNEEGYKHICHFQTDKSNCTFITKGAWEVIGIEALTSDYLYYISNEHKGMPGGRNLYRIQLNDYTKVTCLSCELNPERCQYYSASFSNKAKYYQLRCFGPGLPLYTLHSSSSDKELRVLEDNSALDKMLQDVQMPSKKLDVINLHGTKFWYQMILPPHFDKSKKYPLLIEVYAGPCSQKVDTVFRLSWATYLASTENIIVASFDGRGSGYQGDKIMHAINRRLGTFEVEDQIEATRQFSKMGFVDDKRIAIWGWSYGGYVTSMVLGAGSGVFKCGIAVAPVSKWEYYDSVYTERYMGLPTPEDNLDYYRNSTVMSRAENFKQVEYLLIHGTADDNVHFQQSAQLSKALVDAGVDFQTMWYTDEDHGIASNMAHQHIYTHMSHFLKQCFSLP

For the compound `CC[C@H](C)[C@H](N)C(=O)N1CCSC1` [Isoleucine thiazolidide], the “glucose tolerance (in words)” value in series [1] is “improved glucose tolerance”.

In the case of GLP-19-36, in series [2], the “apparent half-life in the circulation” value is 4 to 5 min.

A word on the IC50: it is the point on the concentration scale where inhibition reaches its midpoint. Broadly, the melting point is the temperature of the solid-liquid transition. On to `N#CC1CCCN1C(=O)C1CNCCN1.O=C(O)C(F)(F)F.O=C(O)C(F)(F)F` (stereo not drawn) [Compound No. 1, 2-Cyano-1-(piperazine-2-yl)-carbonyl pyrrolidine bis-trifluoroacetate], for which the melting point fell in the range of 126 to 128 °C. For the same compound, the IC50 in series [3] came to 47.6 ± 2.72 µM.

On to `N#Cc1ccc(NCCNCC(=O)N2CCC[C@H]2C#N)nc1` [NVP-DPP-728, 1-[-2-{(5-cyanopyridin-2-yl)amino}ethylamino]acetyl-2-cyano-(S)-pyrrolidine], for which, in series [4], the “insulin secretion and glucose tolerance (in words)” value is “improves insulin secretion and glucose tolerance”.

Take `Cl.N#CC1CCCN1C(=O)N(N)C1CCCCC1` (stereo not drawn): the melting point was 160 to 162 °C (dec.).
